Laboratory results published in patent US20110294897A1, “Treating Xerophthalmia With Compounds Increasing Meibomian Gland Secretion” (Bridge Pharma, Inc., priority 2009, published 2011).

How the values were obtained:
[1] = test system: Meibomian gland secretion; experiment: Meibomian gland secretion in vivo (Meibometer), other agonists
Description: Meibomian gland secretion was measured with a Meibometer (Courage-Khazaka Electronic GmbH, 50829 Cologne) and was increased in vivo as described in Examples 6 and 7, hereinafter.

human β3 receptors = molecular target: T1, human β3 receptors (Homo sapiens, UniProt P13945); experiment: human β3 adrenergic receptor binding, [125I]CYP
T1 construct: expressed in transfected cells; host or cells: SK-N-MC cells
Description: The specific ligand binding to the receptors is defined as the difference between the total binding and the nonspecific binding determined in the presence of an excess of unlabelled ligand.

intraocular pressure [2] = experiment: night-time intraocular pressure in Dutch-Belted rabbits; assay type: in vivo, rabbit; settings: for increase of IOP: night-time IOP, ocular instillation
Description: Intraocular pressure (IOP) in rabbits is considerably higher during the night than during the day. The present experiments were conducted in Dutch-Belted rabbits in which IOP was higher during daytime as a consequence of switching the night/day cycle by exposing the animals to 12 hours of light during the night and 12 hours of darkness during daytime. […]

solubility in water = assay type: physicochemical
lacrimal gland secretion = experiment: lacrimal secretion (Schirmer) after intravenous administration in conscious rabbits; assay type: in vivo, rabbit
Description: In short, Schirmer strips are strips of filter papers, which are in part inserted into the conjunctival sac and in part hanging out from the conjunctival sac. The Schirmer strips absorb the watery tear fluid as can be observed as wetting of the strips. The length of the wetted area is measured and is an indicator of the amount of available tear fluid in the conjunctival sac. […] The average pre-dose value (from three Schirmer readings in each animal) was compared with the average of four readings during the infusions of R-salbutamol.

[3] = test system: Meibomian gland secretion; experiment: Meibomian gland secretion (Meibometer) after intravenous infusion in conscious beagle dogs; assay type: in vivo, dog; settings: for Meibomian gland secretion: pre-infusion 248±9 MU
Description: . A Meibometer (MB550, Courage-Khazaka GmbH, Koln, Germany) was used to measure the delivery rate of lipids from the Meibomian glands. The measurements were performed in conscious beagle dogs. To reduce variability all studies were performed by a single individual, who had obtained extensive training with the instrumentation and was used to the handling of conscious laboratory dogs. The methodology has been described by Benz, P., et al. 2008, which publication is hereby included by reference, although new and improved computer software was used in the present studies.

[4] = test system: Meibomian gland secretion; experiment: Meibomian lipid secretion (Meibometer) after ocular instillation in conscious beagle dogs; assay type: in vivo, dog; settings: Day 3, 4.0 percent in saline, single eye drops three times daily; vehicle 174 MU
Description: A Meibometer was used to measure the delivery rate of lipids from the Meibomian glands. The measurements were performed in conscious beagle dogs and the test methodology is described above (Example 6). In these experiments, Meibomian secretion was measured in saline vehicle-treated dogs and in groups of dogs that were treated with a test article, daily at about 9 AM, 11 AM and 1 PM with single eye drops. […] Both eyes were treated and a total of six dogs were used for each treatment group.

intraocular pressure [5] = experiment: intraocular pressure in rabbits with glucose-elevated IOP; assay type: in vivo, rabbit; settings: 10 μL instilled, 12-15 minutes after dosing
Description: Intraocular pressure (IOP) was increased in conscious rabbits by intravenous injections of glucose. The test compound was administered by instillation into the conjunctival sac immediately after the glucose injection and all measurements were made approximately 12-15 minutes after dosing. […] Thus, 10 μL of solutions containing 3.5 or 7.0 or 14.0 mg/ml in Tears Naturale® were instilled into the conjunctival sac. Tears Naturale® was used as control solution. TOP was measured using a manometrically calibrated BIO-RAD Digilab pneumatonometer. Tetracaine (10 μl, 0.5%) was applied to the cornea before the IOP measurements. N=7 Dutch Belted rabbits/group (2-4 kg; M and F).

intraocular pressure [6] = experiment: normal intraocular pressure in Dutch-Belted rabbits; assay type: in vivo, rabbit; settings: 4.1% in saline, twice daily for 5 days
Description: Intraocular pressure was measured twice daily using the methodology stated above.

[7] = test system: eyes of New Zealand White rabbits; experiment: ocular irritation, Draize scoring in New Zealand White rabbits
Description: As a vehicle control 0.1 ml of 0.9% sodium chloride for injection (B. Braun; Lot No. J9A692) was instilled in the conjunctival sac of the left eye of all the rabbits. […] Draize scoring was assessed 30 minutes, 4 hours and 24 hours after the instillations of the placebo control (saline) and the test article solutions.
The grades of ocular reaction (conjunctivae, cornea, and iris) were determined at each examination.

patients = settings: according to the manufacturer; cited from earlier work

T1 sequence (P13945 whole entry): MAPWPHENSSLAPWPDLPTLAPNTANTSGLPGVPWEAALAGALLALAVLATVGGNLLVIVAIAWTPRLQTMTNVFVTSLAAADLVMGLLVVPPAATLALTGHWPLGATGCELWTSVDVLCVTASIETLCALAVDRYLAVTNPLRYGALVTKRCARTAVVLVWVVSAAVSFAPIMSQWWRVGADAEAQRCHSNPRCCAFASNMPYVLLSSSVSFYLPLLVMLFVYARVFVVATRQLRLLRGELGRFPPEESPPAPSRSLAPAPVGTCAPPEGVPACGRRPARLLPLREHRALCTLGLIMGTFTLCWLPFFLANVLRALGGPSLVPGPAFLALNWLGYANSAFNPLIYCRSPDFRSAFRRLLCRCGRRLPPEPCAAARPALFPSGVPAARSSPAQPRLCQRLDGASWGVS

CC(CCc1ccc(O)cc1)NCC(O)c1ccc(O)cc1 (racemic) [RR/SR ractopamine, ractopamine]
Meibomian gland secretion in vivo [1]: ability to increase Meibomian gland secretion in vivo

CC(C)(C)NCC(O)c1ccc(O)c(CO)c1 (racemic) [salbutamol, a′[(tert-butylamino)methyl]-4-hydroxy-m-xylene-a,a′-diol]
affinity for beta-3 receptors (human β3 receptors): practically no affinity
Δ mmHg, nighttime intraocular pressure (intraocular pressure [2]; RS-Hi 2.0%, 1 PM): −7 mmHg
Δ mmHg, nighttime intraocular pressure (intraocular pressure [2]; RS-Hi 2.0%, 3 PM): −4 mmHg
Δ mmHg, nighttime intraocular pressure (intraocular pressure [2]; RS-Hi 2.0%, 5 PM): −0 mmHg
Δ mmHg, nighttime intraocular pressure (intraocular pressure [2]; RS-Hi 2.0%, 9:00 (instillation)): 0 mmHg
Δ mmHg, nighttime intraocular pressure (intraocular pressure [2]; RS-Hi 2.0%, 9:30): −9 mmHg
Δ mmHg, nighttime intraocular pressure (intraocular pressure [2]; RS-Hi 2.0%, 10 AM): −9 mmHg
Δ mmHg, nighttime intraocular pressure (intraocular pressure [2]; RS-Hi 2.0%, 11 AM): −9 mmHg
Δ mmHg, nighttime intraocular pressure (intraocular pressure [2]; RS-Lo 0.67%, 1 PM): −5 mmHg
Δ mmHg, nighttime intraocular pressure (intraocular pressure [2]; RS-Lo 0.67%, 3 PM): −2 mmHg
Δ mmHg, nighttime intraocular pressure (intraocular pressure [2]; RS-Lo 0.67%, 5 PM): −0.5 mmHg
Δ mmHg, nighttime intraocular pressure (intraocular pressure [2]; RS-Lo 0.67%, 9:00 (instillation)): 0 mmHg
Δ mmHg, nighttime intraocular pressure (intraocular pressure [2]; RS-Lo 0.67%, 9:30): −6 mmHg
Δ mmHg, nighttime intraocular pressure (intraocular pressure [2]; RS-Lo 0.67%, 10 AM): −6 mmHg
Δ mmHg, nighttime intraocular pressure (intraocular pressure [2]; RS-Lo 0.67%, 11 AM): −6 mmHg
increase of IOP (intraocular pressure [2]): Neither racemic nor isomeric salbutamol increased IOP
solubility in water (solubility in water): readily soluble in water

CC(C)(C)NC[C@H](O)c1ccc(O)c(CO)c1 [R-salbutamol, R(−)-isomer of a′[(tert-butylamino)methyl]-4-hydroxy-m-xylene-a,a′-diol]
affinity for beta-3 receptors (human β3 receptors): practically no affinity
wetting of the Schirmer strips (lacrimal gland secretion; during iv infusion 30 μg/kg/min for 20 min, predose 20.3±1.6, six eyes): 33.8±2.3 millimeter
increased wetting of the Schirmer strips (lacrimal gland secretion; iv 30 μg/kg/min, versus predose): approximately 66%
Meibomian gland secretion ([3]; during twenty-minute iv infusion 30 μg/kg/min): 235±23 MU
difference between pre-infusion and post-infusion secretion ([3]; iv 30 μg/kg/min for 20 min): approximately 27%
Meibomian gland secretion ([3]; ten minutes post-infusion): 316±26 MU
Meibomian secretion, mean [4]: 304 MU
intraocular pressure lowered (vs control animals), mean±SEM (intraocular pressure [5]; 3.5 mg/ml): 5.5±1.3 mmHg
intraocular pressure lowered (vs control animals), mean±SEM (intraocular pressure [5]; 7.0 mg/ml): 6.7±1.5 mmHg
intraocular pressure lowered (vs control animals), mean±SEM (intraocular pressure [5]; 14.0 mg/ml): 5.8±1.3 mmHg
Δ mmHg, nighttime intraocular pressure (intraocular pressure [2]; R-Hi 1.0%): −11 mmHg
Δ mmHg, nighttime intraocular pressure (intraocular pressure [2]; R-Hi 1.0%, 1 PM): −10 mmHg
Δ mmHg, nighttime intraocular pressure (intraocular pressure [2]; R-Hi 1.0%, 3 PM): −3 mmHg
Δ mmHg, nighttime intraocular pressure (intraocular pressure [2]; R-Hi 1.0%, 5 PM): −2 mmHg
Δ mmHg, nighttime intraocular pressure (intraocular pressure [2]; R-Hi 1.0%, 9:00 (instillation)): 0 mmHg
Δ mmHg, nighttime intraocular pressure (intraocular pressure [2]; R-Hi 1.0%, 9:30): −7 mmHg
Δ mmHg, nighttime intraocular pressure (intraocular pressure [2]; R-Hi 1.0%, 10 AM): −8 mmHg
Δ mmHg, nighttime intraocular pressure (intraocular pressure [2]; R-Lo 0.33%, 1 PM): −4 mmHg
Δ mmHg, nighttime intraocular pressure (intraocular pressure [2]; R-Lo 0.33%, 3 PM): −3 mmHg
Δ mmHg, nighttime intraocular pressure (intraocular pressure [2]; R-Lo 0.33%, 5 PM): −2.5 mmHg
Δ mmHg, nighttime intraocular pressure (intraocular pressure [2]; R-Lo 0.33%, 9:00 (instillation)): 0 mmHg
Δ mmHg, nighttime intraocular pressure (intraocular pressure [2]; R-Lo 0.33%, 9:30): −7 mmHg
Δ mmHg, nighttime intraocular pressure (intraocular pressure [2]; R-Lo 0.33%, 10 AM): −9 mmHg
Δ mmHg, nighttime intraocular pressure (intraocular pressure [2]; R-Lo 0.33%, 11 AM): −9 mmHg
increase of IOP (intraocular pressure [2]): Neither racemic nor isomeric salbutamol increased IOP
increase in IOP (intraocular pressure [6]): No increase in IOP was observed
concentration dissolved in water (solubility in water): in excess of five percent by weight
solubility in water (solubility in water): readily soluble in water
Mean Post-Instillation Irritation Score ([7]; 0.1% in saline, 4 Hours): 0
Mean Post-Instillation Irritation Score ([7]; 0.1% in saline, 24 Hours): 0
Mean Post-Instillation Irritation Score ([7]; 0.1% in saline, 30 Minutes): 0
Mean Post-Instillation Irritation Score ([7]; 0.5% in saline, 4 Hours): 0
Mean Post-Instillation Irritation Score ([7]; 0.5% in saline, 24 Hours): 0
Mean Post-Instillation Irritation Score ([7]; 0.5% in saline, 30 Minutes): 0
Mean Post-Instillation Irritation Score ([7]; 5.0% in saline, 4 Hours): 0
Mean Post-Instillation Irritation Score ([7]; 5.0% in saline, 24 Hours): 0
Mean Post-Instillation Irritation Score ([7]; 5.0% in saline, 30 Minutes): 0
ocular irritancy ([7]; single-dose, in saline, concentrations up to 5%): not irritants

CC(C)(C)NC[C@@H](O)c1ccc(O)c(CO)c1 [S-salbutamol]
Meibomian gland secretion in vivo [1]: may also increase Meibomian gland secretion

CNCC(O)c1ccc(OC(=O)C(C)(C)C)c(OC(=O)C(C)(C)C)c1 (centres unmarked) [dipivefrin]
patients with epinephrine intolerance (patients): 3%

CNC[C@H](O)c1ccc(O)c(O)c1 [epinephrine]
patients with epinephrine intolerance (patients): 55%

CC(C)(C)NC[C@H](O)COc1nsnc1N1CCOCC1 [timolol]
intraocular pressure lowered (vs control animals), mean±SEM (intraocular pressure [5]; 3.5 mg/ml): 4.7±1.3 mmHg
intraocular pressure lowered (vs control animals), mean±SEM (intraocular pressure [5]; 7.0 mg/ml): 4.6±1.0 mmHg
intraocular pressure lowered (vs control animals), mean±SEM (intraocular pressure [5]; 14.0 mg/ml): 4.7±1.3 mmHg
